In PubChem BioAssay (NCI):
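Each compound was tested at five concentrations against cells in 96-well plates for 48 hours. At the GI50, growth is halved. TGI is the concentration that stops growth completely.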

How the values were obtained:
Experiment in all cases: growth of human tumour cells (NCI), 48 h
RXF 393 renal = system: RXF 393 renal
SNB-19 CNS = system: SNB-19 CNS
OVCAR-3 ovarian = system: OVCAR-3 ovarian
LOX IMVI melanoma = system: LOX IMVI melanoma
SK-OV-3 ovarian = system: SK-OV-3 ovarian
HCT-116 colon = system: HCT-116 colon
HS 578T breast = system: HS 578T breast
SN12C renal = system: SN12C renal
SF-295 CNS = system: SF-295 CNS
A549 NSCLC = system: A549 NSCLC
SNB-75 CNS = system: SNB-75 CNS
SF-268 CNS = system: SF-268 CNS
NCI-H226 lung = system: NCI-H226 lung
RPMI-8226 leukemia = system: RPMI-8226 leukemia
CCRF-CEM leukemia = system: CCRF-CEM leukemia
COLO 205 colon = system: COLO 205 colon
NCI-H460 lung = system: NCI-H460 lung
PC-3 prostate = system: PC-3 prostate
MCF7 breast = system: MCF7 breast
M14 melanoma = system: M14 melanoma
CAKI-1 renal = system: CAKI-1 renal
MDA-MB-435 = system: MDA-MB-435
OVCAR-8 ovarian = system: OVCAR-8 ovarian
MDA-MB-231 breast = system: MDA-MB-231 breast
SR leukemia = system: SR leukemia
UACC-257 melanoma = system: UACC-257 melanoma
SW-620 colon = system: SW-620 colon
U251 CNS = system: U251 CNS
ACHN renal = system: ACHN renal
UACC-62 melanoma = system: UACC-62 melanoma
UO-31 renal = system: UO-31 renal
TK-10 renal = system: TK-10 renal
HL-60(TB) leukemia = system: HL-60(TB) leukemia
MDA-MB-468 breast = system: MDA-MB-468 breast
HOP-92 NSCLC = system: HOP-92 NSCLC
HOP-62 NSCLC = system: HOP-62 NSCLC
KM12 colon = system: KM12 colon
IGROV1 ovarian = system: IGROV1 ovarian
HCT-15 colon = system: HCT-15 colon
DU-145 prostate = system: DU-145 prostate
EKVX NSCLC = system: EKVX NSCLC
BT-549 breast = system: BT-549 breast
SK-MEL-5 melanoma = system: SK-MEL-5 melanoma
HT29 colon = system: HT29 colon
HCC-2998 colon = system: HCC-2998 colon
K-562 leukemia = system: K-562 leukemia
T-47D breast = system: T-47D breast
786-0 renal = system: 786-0 renal
OVCAR-5 ovarian = system: OVCAR-5 ovarian
A498 renal = system: A498 renal
OVCAR-4 ovarian = system: OVCAR-4 ovarian
MALME-3M melanoma = system: MALME-3M melanoma
SK-MEL-28 melanoma = system: SK-MEL-28 melanoma
NCI-H23 lung = system: NCI-H23 lung
MOLT-4 leukemia = system: MOLT-4 leukemia
NCI-H522 lung = system: NCI-H522 lung
SF-539 CNS = system: SF-539 CNS

O=C(COc1ccc(NC(=O)Nc2ccc(Cl)cc2)cc1)N/N=C/c1ccccc1
GI50 (RXF 393 renal): 4.55 µM | TGI (RXF 393 renal): 19 µM | GI50 (SNB-19 CNS): 4.42 µM | TGI (SNB-19 CNS): 20.7 µM | GI50 (OVCAR-3 ovarian): 4.15 µM | TGI (OVCAR-3 ovarian): 54.2 µM | GI50 (LOX IMVI melanoma): 7.1 µM | TGI (LOX IMVI melanoma): > 100 µM | GI50 (SK-OV-3 ovarian): 6.06 µM | TGI (SK-OV-3 ovarian): 25.8 µM | GI50 (HCT-116 colon): 1.68 µM | TGI (HCT-116 colon): 12.6 µM | GI50 (HS 578T breast): 7.71 µM | TGI (HS 578T breast): 54.2 µM | GI50 (SN12C renal): 7.64 µM | TGI (SN12C renal): > 100 µM | GI50 (SF-295 CNS): 2.69 µM | TGI (SF-295 CNS): 13.7 µM | GI50 (A549 NSCLC): 4.67 µM | TGI (A549 NSCLC): > 100 µM | GI50 (SNB-75 CNS): 3.95 µM | TGI (SNB-75 CNS): 24.3 µM | GI50 (SF-268 CNS): 16.2 µM | TGI (SF-268 CNS): 99.8 µM | GI50 (NCI-H226 lung): 2.85 µM | TGI (NCI-H226 lung): 9.82 µM | GI50 (RPMI-8226 leukemia): 63.9 µM | TGI (RPMI-8226 leukemia): > 100 µM | GI50 (CCRF-CEM leukemia): 21.8 µM | TGI (CCRF-CEM leukemia): > 100 µM | GI50 (COLO 205 colon): 19 µM | TGI (COLO 205 colon): > 100 µM | GI50 (NCI-H460 lung): 3.22 µM | TGI (NCI-H460 lung): > 100 µM | GI50 (PC-3 prostate): 2.81 µM | TGI (PC-3 prostate): 21.2 µM | GI50 (MCF7 breast): 3.88 µM | TGI (MCF7 breast): > 100 µM | GI50 (M14 melanoma): 5.02 µM | TGI (M14 melanoma): > 100 µM | GI50 (CAKI-1 renal): 15 µM | TGI (CAKI-1 renal): > 100 µM | GI50 (MDA-MB-435): 3.76 µM | TGI (MDA-MB-435): > 100 µM | GI50 (OVCAR-8 ovarian): 3.81 µM | TGI (OVCAR-8 ovarian): > 100 µM | GI50 (MDA-MB-231 breast): 8.57 µM | TGI (MDA-MB-231 breast): 47.6 µM | GI50 (SR leukemia): 4.59 µM | TGI (SR leukemia): 33.1 µM | GI50 (UACC-257 melanoma): 17.4 µM | TGI (UACC-257 melanoma): > 100 µM | GI50 (SW-620 colon): 6.03 µM | TGI (SW-620 colon): > 100 µM | GI50 (U251 CNS): 4.05 µM | TGI (U251 CNS): > 100 µM | GI50 (ACHN renal): 4.64 µM | TGI (ACHN renal): 37.6 µM | GI50 (UACC-62 melanoma): 2.82 µM | TGI (UACC-62 melanoma): 13.7 µM | GI50 (UO-31 renal): 86.4 µM | TGI (UO-31 renal): > 100 µM | GI50 (TK-10 renal): 20.2 µM | TGI (TK-10 renal): 63.8 µM | GI50 (HL-60(TB) leukemia): > 100 µM | TGI (HL-60(TB) leukemia): > 100 µM | GI50 (MDA-MB-468 breast): 3.23 µM | TGI (MDA-MB-468 breast): 10.6 µM | GI50 (HOP-92 NSCLC): 3 µM | TGI (HOP-92 NSCLC): 16 µM | GI50 (HOP-62 NSCLC): 2.62 µM | TGI (HOP-62 NSCLC): 11.1 µM | GI50 (KM12 colon): > 100 µM | TGI (KM12 colon): > 100 µM | GI50 (IGROV1 ovarian): 14.1 µM | TGI (IGROV1 ovarian): > 100 µM | GI50 (HCT-15 colon): 5.85 µM | TGI (HCT-15 colon): > 100 µM | GI50 (DU-145 prostate): 4.51 µM | TGI (DU-145 prostate): > 100 µM | GI50 (EKVX NSCLC): 6.09 µM | TGI (EKVX NSCLC): 90.8 µM | GI50 (BT-549 breast): 4.41 µM | TGI (BT-549 breast): 56.2 µM | GI50 (SK-MEL-5 melanoma): 8.49 µM | TGI (SK-MEL-5 melanoma): > 100 µM | GI50 (HT29 colon): 31.2 µM | TGI (HT29 colon): > 100 µM | GI50 (HCC-2998 colon): 22.5 µM | TGI (HCC-2998 colon): > 100 µM | GI50 (K-562 leukemia): 12.6 µM | TGI (K-562 leukemia): > 100 µM | GI50 (T-47D breast): 8.22 µM | TGI (T-47D breast): > 100 µM | GI50 (786-0 renal): 6.26 µM | TGI (786-0 renal): 24.9 µM | GI50 (OVCAR-5 ovarian): > 100 µM | TGI (OVCAR-5 ovarian): > 100 µM | GI50 (A498 renal): 20.1 µM | TGI (A498 renal): 50.9 µM | GI50 (OVCAR-4 ovarian): 3.34 µM | TGI (OVCAR-4 ovarian): 68.7 µM | GI50 (MALME-3M melanoma): 4.44 µM | TGI (MALME-3M melanoma): 71.7 µM | GI50 (SK-MEL-28 melanoma): 3.87 µM | TGI (SK-MEL-28 melanoma): 43.1 µM | GI50 (NCI-H23 lung): 4.21 µM | TGI (NCI-H23 lung): 25.9 µM | GI50 (MOLT-4 leukemia): 59.5 µM | TGI (MOLT-4 leukemia): > 100 µM | GI50 (NCI-H522 lung): 7.74 µM | TGI (NCI-H522 lung): > 100 µM | GI50 (SF-539 CNS): 6.23 µM | TGI (SF-539 CNS): 27.4 µM
